Earlier results as cited in patent publication US6458790B2, “Substituted piperidines as melanocortin receptor agonists” (Merck & Co., Inc., priority 2000, dated 2002).

Tests used:
[1] = tested on: men with erectile dysfunction; details: for duration of effect / onset of action: after an oral dose; for share of men/patients in whom effective (adequate response): oral
[2] = tested on: males with psychogenic erectile dysfunction
[3] = subcutaneous injection formulation

In the case of CCCc1nn(C)c2c(=O)[nH]c(-c3cc(S(=O)(=O)N4CCN(C)CC4)ccc3OCC)nc12 [Sildenafil], the duration of effect [1] is listed as “about 4 hours”, the onset of action [1] is listed as 30 to 60 min and the “share of men/patients in whom effective (adequate response)” value [1] is listed as “about 70%”.

For Cc1ccc(N(CC2=NCCN2)c2cccc(O)c2)cc1 [phentolamine], the duration of effect [1] is given as 2 h, the onset of action [1] is given as 5 to 30 min and the “share of men/patients in whom effective (adequate response)” value [1] is given as 35-40%.

In the case of “Ac-Nle-c[Asp-His-DPhe-Arg-Trp-Lys]-NH2 [MT-II]”, the “absorption into the systemic circulation” value ([2]; human, in vivo, po) is listed as “not absorbed into the systemic circulation”, the response rate ([2]; injected intramuscularly or subcutaneously) is listed as 75% and the duration of action [2, 3] is listed as “approximately 2.5 hours”. The “time to onset of erection” value [2, 3] was 10 to 20 min.
